Assay results taken from patent US5045566A, “Novel imidate insecticides” (ICI Americas Inc., priority 1989, dated 1991).

Assays:
Type in all cases: in vivo
[1] = tested on: Housefly [Musca domestica]; assay: Housefly contact mortality in dishes (HF), 48 hours; conditions: μg of test compound per 25 female flies
Method in brief: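 Acetone solutions (with 0.01% peanut oil) dried onto dish bottoms, then 25 female flies, 1-2 days old, caged over the residue with sugar water. Mortality scored at 48 hours; LC50 from dosage-mortality curves, in μg per 25 female flies, top level 100 μg.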

[2] = tested on: Cabbage Looper [Trichoplusia ni (Hubner)]; assay: Cabbage looper leaf dip (CL), 3-5 days; conditions: percent in solution, second-instar larvae
Method in brief: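 Steps: dilute compound in 50-50 acetone-water from 0.1% downward; immerse cotyledon pieces 2-3 s and dry; place in humid petri dishes with five second-instar larvae; record mortality at 3-5 days. Dosage-mortality curves yield LC50 as percent in solution.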

[3] = tested on: Rice water weevil [Lissorhoptrus oryzophilus (Kuschel)]; assay: Rice water weevil topical (RWW), 48 hours; conditions: μg of test compound per weevil, female adults
Description: The compounds in Tables 1 and 2 above were tested for insecticidal activity using the following testing procedures. LC50 values, based on the results of these tests and calculated according to dosage-mortality curves, are expressed in Table 3.
Rice water weevil [Lissorhoptrus oryzophilus (Kuschel)]:
Test compounds were diluted in acetone. Droplets (1 ul) of test solutions were applied to the ventral abdomens of ten female adult weevils. The treated weevils were placed in containers with wet cotton balls and rice foliage. The containers were covered and kept at a temperature of about 25° C. Mortality was recorded after 48 hours. Test concentrations ranged from […] down to that at which 50% mortality occurred. The LC50 values are expressed below in Table 3 under the heading "RWW" in terms of μg of test compound per weevil.

[4] = tested on: Maize weevil [Sitophilus zeamais (Motschulsky)]; assay: Maize weevil on dipped corn seeds (MW), 48 hours; conditions: percent in solution, adult weevils
Method in brief: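 LC50, given as percent of compound in dipping solution, comes from dosage-mortality curves over concentrations descending from 0.01%. Four corn seeds soaked 2-3 s in 50:50 acetone:water solution were dried and held with 10 adult weevils, about 25° C, mortality read after 48 h.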

[5] = tested on: Black Bean Aphid [Aphis fabae (Scop.)]; assay: Black bean aphid spray test on nasturtium (BBA), 48 hours; conditions: percent of test compound in sprayed solution
Method in brief: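 LC50, given as percent test compound in the sprayed liquid, was calculated from dosage-mortality curves using concentrations from 0.05% downward. Sprays in 50:50 acetone-water went to runoff on ~5 cm nasturtiums carrying 25-50 aphids of mixed ages, one day after infestation. Deaths were counted 48 h later under greenhouse conditions.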

[6] = tested on: Tobacco Budworm [Heliothis virescens (Fabricius)] eggs; assay: Tobacco budworm eggs (TBW-E); conditions: percent in solution; 2-day old eggs
Method in brief: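 Mortality of dipped eggs served as read-out, recorded after untreated controls hatched and began feeding. Treatments used acetone solutions from 0.1% downward, with eggs incubated at 78° F; LC50 is expressed as percent of compound in the solution.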

[7] = tested on: Aster Leafhopper [Macrosteles fascifrens (Stal)]; assay: Aster leafhopper on dipped oat seedlings (LH), 48 hours; conditions: percent in solution, adults/nymphs
Method in brief: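 Three ~10 cm oat seedlings per cup were dipped 2-3 seconds in 50-50 acetone-water compound solutions, dried, and caged with ten adult/nymph leafhoppers. Mortality was counted after 48 hours at concentrations from 0.05% downward. LC50, as percent compound in solution, came from dosage-mortality curves.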

[8] = tested on: Beet Armyworm (Spodoptera exigua); assay: Beet armyworm leaf dip (BAW), 5 days; conditions: percent in solution; second-instar larvae; five days
Method in brief: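 Sugar beet leaves dipped 2–3 s in compound diluted in 50:50 acetone-water, dried, then infested with five second-instar larvae in humid petri dishes. Mortality scored at 5 days; concentrations from 0.1% downward. LC50 from dosage-mortality curves, expressed as percent compound in solution.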

[9] = tested on: Tobacco Budworm [Heliothis virescens (Fabricius)] larvae; assay: Tobacco budworm larvae, contact (TBW-C), 5 days; conditions: percent in solution, second-instar larvae
Method in brief: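 Cotton cotyledons dipped 2–3 s in compound in 50-50 acetone-water, dried, then infested with 5 second-instar larvae and held 5 days at high humidity. Mortality scored; LC50 from dosage-mortality curves, expressed as percent compound in solution, concentrations from 0.1% downward.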

Row | Compound | LC50 HF [1] [µg] | LC50 CL [2] [%] | LC50 RWW [3] [µg] | LC50 MW [4] [%] | LC50 BBA [5] [%] | LC50 TBW E (eggs) [6] [%] | LC50 LH [7] [%] | LC50 BAW [8] [%] | LC50 TBW C (contact) [9] [%]
1 | Fc1ccc(N=C(OCc2cccc(Oc3ccccc3)c2)C2CC2)cc1Cl [Compound 113] | 15 | 0.005 | > 2.5 |  |  |  |  |  | 
2 | CC(C)C(=Nc1ccc(F)c(Cl)c1)OCc1cc(Oc2ccc(F)cc2)ccc1F [Compound 230] | 36 | 0.0004 | > 2.5 | 0.038 | 0.01 | 0.1 |  |  | 
3 | CC(C)C(=Nc1ccc(F)c(Br)c1)OCc1cccc(Oc2ccccc2)c1 [Compound 254] | 6 | 0.001 | > 2.5 |  | 0.001 | 0.026 |  |  | 
4 | CC(C)C(=Nc1ccc(F)c(Cl)c1)OCc1cccc(Oc2ccc(F)cc2)c1F [Compound 262] | 26 | 0.0004 | > 2.5 | 0.005 | 0.03 | > 0.1 |  |  | 
5 | CC(C)C(=Nc1cccc(Cl)c1)OCc1cccc(Oc2ccc(Cl)cc2)c1 [Compound 270] | 12 | 0.00025 |  | > 0.01 | > 0.05 | > 0.01 | 0.003 | 0.005 | > 0.0015
6 | CC(C)C(=Nc1cccc(I)c1)OCc1ccc(F)c(Oc2ccc(F)cc2)c1 [Compound 279] | 4 | 0.00008 |  | > 0.01 | 0.0005 | 0.016 | 0.0003 | 0.0025 | 0.007
7 | CC(C)(F)C(=Nc1ccc(F)c(Cl)c1)OCc1ccc(F)c(Oc2ccc(F)cc2)c1 [Compound 310] | 4.5 | 0.00006 | > 2.5 |  | 0.0006 | 0.015 |  |  | 
8 | CC(C)C(=Nc1ccc(C(F)(F)F)cc1)OCc1ccc(F)c(Oc2ccc(F)cc2)c1 [Compound 314] | 21 | 0.00005 | 0.11 |  |  | 0.012 |  |  | 
9 | CC(C)C(=Nc1ccc(F)c(Cl)c1)OCc1ccc(F)c(Oc2ccc(F)c(F)c2)c1 [Compound 346] | 7.2 | > 0.1 |  | > 0.01 | 0.0008 | > 0.1 | 0.05 | > 0.1 | 0.0002
10 | CC(C)C(=Nc1ccc(OC(F)(F)F)cc1)OCc1ccc(F)c(Oc2ccc(F)c(F)c2)c1 [Compound 347] | 30 | 0.000075 |  | > 0.01 | 0.0002 | > 0.1 | 0.0002 | 0.00075 | 0.0001
11 | CC(C)C(=Nc1ccc(F)c(F)c1F)OCc1cccc(Oc2ccc(F)cc2)c1 [Compound 348] | 8 | 0.0002 |  | > 0.01 | 0.001 | > 0.1 | 0.05 | > 0.1 | 0.00075
12 | CCOc1ccc(N=C(OCc2ccc(F)c(Oc3ccc(Cl)cc3)c2)C(C)C)cc1Cl [Compound 369] | > 100 | 0.0016 | > 2.5 | > 0.01 | 0.0003 | > 0.1 |  |  | 
13 | CCOc1ccc(N=C(OCc2ccc(F)c(Oc3ccccc3)c2)C(C)C)cc1Cl [Compound 370] | < 100 | 0.00034 | > 2.5 | > 0.01 | 0.0002 | 0.02 |  |  | 
14 | CC(C)C(=Nc1cccc(F)c1)OCc1ccc(F)c(Oc2ccc(Cl)cc2)c1 [Compound 375] | 7.9 | > 0.1 | > 2.5 | > 0.01 | 0.0006 | 0.04 |  |  | 
15 | CC(C)C(=Nc1ccc(Cl)c(Cl)c1)OCc1ccc(F)c(Oc2ccccc2)c1 [Compound 376] | 17 | 0.00037 | 0.1 | 0.0061 | 0.0003 | 0.02 |  |  | 
16 | CC(C)C(=Nc1ccc(C(F)(F)F)c(Br)c1)OCc1ccc(F)c(Oc2ccc(Cl)cc2)c1 [Compound 377] | < 100 | 0.00062 | > 2.5 | > 0.01 | 0.001 | > 0.1 |  |  | 
17 | CC(C)C(=Nc1ccc(Br)cc1)OCc1ccc(F)c(Oc2ccc(Cl)cc2)c1 [Compound 378] | < 100 | 0.00034 | > 2.5 | > 0.01 | 0.0008 | 0.02 |  |  | 
18 | CC(C)C(=Nc1ccc(Br)c(Cl)c1)OCc1cccc(Oc2ccc(Cl)cc2)c1 [Compound 380] | > 100 | > 0.1 | > 2.5 | > 0.01 | 0.004 | > 0.1 |  |  | 
19 | CC(C)C(=Nc1ccc(Br)c(Cl)c1)OCc1ccc(F)c(Oc2ccc(Cl)cc2)c1 [Compound 381] | < 100 | 0.00092 | > 2.5 | > 0.01 | 0.002 | 0.018 |  |  | 
20 | CC(C)C(=Nc1ccc(Br)c(Cl)c1)OCc1ccc(F)c(Oc2ccc(F)cc2)c1 [Compound 382] | < 100 | 0.00029 | > 2.5 | > 0.01 | 0.0003 | 0.027 |  |  | 
